Data as given in PMC3914206.

Tests used:
[1] = target: T1, panel of 442 kinases (Homo sapiens, UniProt O75914); type: binding; details: Compound Concentration 10 µM
T1 construct: purchased KINOMEscan
Text: (§1) We assessed the selectivity of members of this scaffold using the KINOMEscan methodology across a near comprehensive panel of 442 kinases [[18,27]].

[2] = target: T2, panel of 442 kinases (Homo sapiens, UniProt O95382); type: binding; details: Compound Concentration 10 µM
T2 construct: purchased KINOMEscan
T2 sequence (O95382 1-1288): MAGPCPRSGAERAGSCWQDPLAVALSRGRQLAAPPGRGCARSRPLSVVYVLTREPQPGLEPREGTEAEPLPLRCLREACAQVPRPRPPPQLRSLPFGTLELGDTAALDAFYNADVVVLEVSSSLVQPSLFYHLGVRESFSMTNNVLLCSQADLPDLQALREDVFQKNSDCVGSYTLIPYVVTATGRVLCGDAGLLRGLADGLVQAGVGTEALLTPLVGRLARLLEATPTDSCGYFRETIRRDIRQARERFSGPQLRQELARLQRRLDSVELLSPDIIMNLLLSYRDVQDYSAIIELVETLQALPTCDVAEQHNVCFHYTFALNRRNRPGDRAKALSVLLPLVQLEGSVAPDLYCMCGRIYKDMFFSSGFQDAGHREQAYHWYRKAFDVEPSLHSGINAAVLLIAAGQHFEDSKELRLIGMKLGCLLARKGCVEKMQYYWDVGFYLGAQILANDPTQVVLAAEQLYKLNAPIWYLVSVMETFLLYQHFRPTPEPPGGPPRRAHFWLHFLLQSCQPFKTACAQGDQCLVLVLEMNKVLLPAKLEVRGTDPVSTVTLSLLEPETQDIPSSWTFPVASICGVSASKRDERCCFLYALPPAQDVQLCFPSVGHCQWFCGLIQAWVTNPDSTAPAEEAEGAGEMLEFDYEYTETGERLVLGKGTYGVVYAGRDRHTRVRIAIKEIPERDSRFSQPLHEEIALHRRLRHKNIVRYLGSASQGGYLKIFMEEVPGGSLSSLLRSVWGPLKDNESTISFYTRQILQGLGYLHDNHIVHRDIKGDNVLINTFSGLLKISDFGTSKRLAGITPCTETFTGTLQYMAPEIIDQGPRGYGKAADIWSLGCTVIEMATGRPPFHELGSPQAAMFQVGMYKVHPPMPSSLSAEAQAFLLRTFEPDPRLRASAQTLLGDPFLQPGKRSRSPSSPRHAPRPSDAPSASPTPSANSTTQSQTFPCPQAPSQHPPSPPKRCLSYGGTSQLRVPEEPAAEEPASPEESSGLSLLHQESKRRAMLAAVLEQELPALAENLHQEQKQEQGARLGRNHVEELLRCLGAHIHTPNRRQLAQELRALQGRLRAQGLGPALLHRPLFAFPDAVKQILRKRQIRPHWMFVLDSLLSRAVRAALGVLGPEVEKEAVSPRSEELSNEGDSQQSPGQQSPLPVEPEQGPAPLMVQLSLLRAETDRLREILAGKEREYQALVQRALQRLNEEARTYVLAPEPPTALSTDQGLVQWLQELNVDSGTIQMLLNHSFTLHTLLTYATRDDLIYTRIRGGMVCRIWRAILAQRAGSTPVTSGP
Text: as §1

T1 sequence (O75914 whole entry): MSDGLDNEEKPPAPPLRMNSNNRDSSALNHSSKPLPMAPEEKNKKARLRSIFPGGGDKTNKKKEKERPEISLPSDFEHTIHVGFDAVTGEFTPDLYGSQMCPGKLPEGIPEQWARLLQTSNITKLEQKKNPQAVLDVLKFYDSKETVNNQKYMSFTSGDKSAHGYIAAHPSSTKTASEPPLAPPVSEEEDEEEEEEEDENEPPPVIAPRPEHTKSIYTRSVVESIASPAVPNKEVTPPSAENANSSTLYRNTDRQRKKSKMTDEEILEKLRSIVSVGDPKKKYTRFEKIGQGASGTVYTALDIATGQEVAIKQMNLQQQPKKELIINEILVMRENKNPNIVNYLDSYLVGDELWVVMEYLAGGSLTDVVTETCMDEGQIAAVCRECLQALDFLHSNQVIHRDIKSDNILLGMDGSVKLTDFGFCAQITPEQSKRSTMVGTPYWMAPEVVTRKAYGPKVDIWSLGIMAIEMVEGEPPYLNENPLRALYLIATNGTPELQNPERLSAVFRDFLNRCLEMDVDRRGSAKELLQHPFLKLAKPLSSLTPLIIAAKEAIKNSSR

For `COc1cc(C(=O)N2CCC(N3CCN(C)CC3)CC2)ccc1Nc1ncc2c(n1)N(C)c1ccccc1C(=O)N2C` [15 (LRRK2-IN-1)], the “KINOMEscan: PAK3” value [1] was 83 and the “KINOMEscan: ASK2” value [2] was 100.
`CCOc1cc(C(=O)N2CCC(N3CCN(C)CC3)CC2)ccc1Nc1ncc2c(n1)N(C1CCCC1)c1ccccc1C(=O)N2C` [Compound 26] was tested, and the “KINOMEscan: PAK3” value [1] was 95 and the “KINOMEscan: ASK2” value [2] was 100.
`COc1cc(C(=O)N2CCC(N3CCN(C)CC3)CC2)ccc1Nc1ncc2c(n1)N1CCc3cccc(c31)C(=O)N2C` [Compound 24] was tested, and the “KINOMEscan: PAK3” value [1] was 80.
For `COc1cc(C(=O)N2CCC(N3CCN(C)CC3)CC2)ccc1Nc1ncc2c(n1)N(C1CCCC1)c1ccccc1C(=O)N2C` [Compound 25, 11-cyclopentyl-2-((2-methoxy-4-(4-(4-methylpiperazin-1-yl)piperidine-1-carbonyl)phenyl)amino)-5-methyl-5H-benzo[e]pyrimido[5,4-b][1,4]diazepin-6(11H)-one], the “KINOMEscan: PAK3” value [1] was 69 and the “KINOMEscan: ASK2” value [2] was 100.
